Test results taken from patent publication US8901118B2, “Compounds and methods for kinase modulation, and indications therefor” (Plexxikon Inc., priority 2010, dated 2014).

Legend:
TrkA kinase = TrkA kinase (Homo sapiens, UniProt P04629); assay: TrkA kinase biochemical activity assay (AlphaScreen); conditions: 100 μM ATP; read-out: Biochemical Inhibition IC50 TrkA
In short: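 IC50 values come from AlphaScreen PY20/streptavidin bead signal versus compound concentration. Kinase reaction: 1 ng/well TrkA, 100 μM ATP, 30 nM biotin-(E4Y)10 substrate, Mn2+-containing Hepes buffer pH 7.5, 5% DMSO, 40 min, room temperature; TrkC assayed by the same approach.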

CYP3A4(BFC) = CYP3A4(BFC) (Homo sapiens, UniProt P08684); assay: CYP3A4(BFC) inhibition; assay type: in vitro ADME; conditions: CYP3A4, substrate BFC; read-out: Cyp IC50 3A4(BFC)
In short: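 This fluorescence assay tracks how test compounds reduce CYP3A4 turnover of BFC, with enzyme and substrate from BD Biosciences. A 10-point 1:1 dilution series in cofactor mix (1.3% NADPH Regeneration Solution A, 1.04% Solution B, 5% acetonitrile, 0.05% DMSO) was dispensed at 10 μL into 384 well plates, preincubated 10 minutes at 37° C, then incubated 30 min and read on a Tecan Safire 2.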

Chain of TrkA kinase (P04629 33-796): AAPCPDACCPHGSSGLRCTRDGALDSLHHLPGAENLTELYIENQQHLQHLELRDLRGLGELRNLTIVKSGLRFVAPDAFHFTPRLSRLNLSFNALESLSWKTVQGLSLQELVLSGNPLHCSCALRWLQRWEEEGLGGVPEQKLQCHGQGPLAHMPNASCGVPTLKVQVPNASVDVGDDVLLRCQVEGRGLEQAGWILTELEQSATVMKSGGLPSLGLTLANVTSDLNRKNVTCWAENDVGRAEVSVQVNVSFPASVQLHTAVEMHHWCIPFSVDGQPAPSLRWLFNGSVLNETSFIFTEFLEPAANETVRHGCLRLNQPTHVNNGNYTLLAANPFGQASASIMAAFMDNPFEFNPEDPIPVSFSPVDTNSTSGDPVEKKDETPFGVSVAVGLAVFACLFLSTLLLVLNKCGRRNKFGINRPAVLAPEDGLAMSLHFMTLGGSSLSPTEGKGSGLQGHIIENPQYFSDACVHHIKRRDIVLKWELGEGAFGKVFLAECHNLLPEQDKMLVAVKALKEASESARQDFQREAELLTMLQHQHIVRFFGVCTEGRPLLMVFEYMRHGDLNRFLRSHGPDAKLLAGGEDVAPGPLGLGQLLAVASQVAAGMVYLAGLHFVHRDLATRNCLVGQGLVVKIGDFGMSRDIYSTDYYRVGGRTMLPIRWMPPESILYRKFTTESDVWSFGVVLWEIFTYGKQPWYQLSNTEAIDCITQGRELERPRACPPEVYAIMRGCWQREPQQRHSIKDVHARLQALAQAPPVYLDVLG
Chain of CYP3A4(BFC) (P08684 whole entry): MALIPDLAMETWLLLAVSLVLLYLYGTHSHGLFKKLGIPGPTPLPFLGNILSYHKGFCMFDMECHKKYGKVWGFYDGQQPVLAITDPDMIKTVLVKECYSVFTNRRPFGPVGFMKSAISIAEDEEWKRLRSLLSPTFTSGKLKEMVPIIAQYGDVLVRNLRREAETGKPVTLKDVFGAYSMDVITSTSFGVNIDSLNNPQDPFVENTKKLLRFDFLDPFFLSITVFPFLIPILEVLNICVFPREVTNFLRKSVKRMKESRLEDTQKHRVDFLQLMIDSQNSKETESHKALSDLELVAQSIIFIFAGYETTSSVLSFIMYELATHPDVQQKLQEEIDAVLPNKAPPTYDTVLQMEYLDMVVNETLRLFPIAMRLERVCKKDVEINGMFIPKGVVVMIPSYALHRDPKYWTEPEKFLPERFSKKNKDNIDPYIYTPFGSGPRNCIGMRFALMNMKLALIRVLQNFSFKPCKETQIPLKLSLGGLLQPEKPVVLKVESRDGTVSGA

Row | Structure (SMILES) | IC50 (TrkA kinase) [µM] | IC50 (CYP3A4(BFC)) [µM]
1 | Cc1cnc2[nH]cc(C(=O)c3ccc(Nc4ccc(C)nc4)nc3F)c2c1 [Compound P-3043, [2-Fluoro-6-(6-methyl-pyridin-3-ylamino)-pyridin-3-yl]-(5-methyl-1H-pyrrolo[2,3-b]pyridin-3-yl)-methanone] | < 0.1 | > 10
2 | Cc1ccc(Nc2ccc(C(=O)c3c[nH]c4ncc(Cl)cc34)c(F)n2)cn1 [Compound P-3044, (5-Chloro-1H-pyrrolo[2,3-b]pyridin-3-yl)-[2-fluoro-6-(6-methyl-pyridin-3-ylamino)-pyridin-3-yl]-methanone] | < 0.1 | > 10
3 | CCc1ccc(Nc2ccc(Cc3c[nH]c4ncc(C)cc34)c(F)n2)cn1 [Compound P-3048, (6-Ethyl-pyridin-3-yl)-[6-fluoro-5-(5-methyl-1H-pyrrolo[2,3-b]pyridin-3-ylmethyl)-pyridin-2-yl]-amine] | < 0.01 | > 10
4 | Cc1cnc2[nH]cc(Cc3ccc(Nc4ccc(C5CC5)nc4)nc3F)c2c1 [Compound P-3050, (6-Cyclopropyl-pyridin-3-yl)-[6-fluoro-5-(5-methyl-1H-pyrrolo[2,3-b]pyridin-3-ylmethyl)-pyridin-2-yl]-amine] | < 0.1 | > 10
5 | Cc1cnc2[nH]cc(C(=O)c3ccc(Nc4ccc(C5CC5)nc4)nc3F)c2c1 [Compound P-3051, [6-(6-Cyclopropyl-pyridin-3-ylamino)-2-fluoro-pyridin-3-yl]-(5-methyl-1H-pyrrolo[2,3-b]pyridin-3-yl)-methanone] | < 0.01 | > 10
6 | Fc1nc(Nc2ccc(C3CC3)nc2)ccc1Cc1c[nH]c2ncccc12 [Compound P-3053, (6-Cyclopropyl-pyridin-3-yl)-[6-fluoro-5-(1H-pyrrolo[2,3-b]pyridin-3-ylmethyl)-pyridin-2-yl]-amine] | < 0.1 | > 10
7 | COc1ccc(Nc2ccc(Cc3c[nH]c4ncnc(OC)c34)c(F)n2)cn1 [Compound P-4001, [6-Fluoro-5-(4-methoxy-7H-pyrrolo[2,3-d]pyrimidin-5-ylmethyl)-pyridin-2-yl]-(6-methoxy-pyridin-3-yl)-amine] | < 0.1 | > 10
8 | COc1ccc(Nc2ccc(Cc3c[nH]c4ncnc(C)c34)c(F)n2)cn1 [Compound P-4002, [6-Fluoro-5-(4-methyl-7H-pyrrolo[2,3-d]pyrimidin-5-ylmethyl)-pyridin-2-yl]-(6-methoxy-pyridin-3-yl)-amine] | < 0.1 | > 10
9 | COc1ncnc2[nH]cc(Cc3ccc(Nc4ccc(Cl)nc4)nc3F)c12 [Compound P-4003, (6-Chloro-pyridin-3-yl)-[6-fluoro-5-(4-methoxy-7H-pyrrolo[2,3-d]pyrimidin-5-ylmethyl)-pyridin-2-yl]-amine] | < 1 | > 10
10 | CCOc1ccc(Nc2ccc(Cc3c[nH]c4ncnc(C)c34)c(F)n2)cn1 [Compound P-4006, (6-Ethoxy-pyridin-3-yl)-[6-fluoro-5-(4-methyl-7H-pyrrolo[2,3-d]pyrimidin-5-ylmethyl)-pyridin-2-yl]-amine] | < 0.1 | > 10
11 | CCc1ccc(Nc2ccc(Cc3c[nH]c4ncnc(OC)c34)c(F)n2)cn1 [Compound P-4007, (6-Ethyl-pyridin-3-yl)-[6-fluoro-5-(4-methoxy-7H-pyrrolo[2,3-d]pyrimidin-5-ylmethyl)-pyridin-2-yl]-amine] | < 0.01 | > 10
12 | CCOc1ccc(Nc2ccc(Cc3c[nH]c4ncnc(OCCOC)c34)c(F)n2)cn1 [Compound P-4008, (6-Ethoxy-pyridin-3-yl)-{6-fluoro-5-[4-(2-methoxy-ethoxy)-7H-pyrrolo[2,3-d]pyrimidin-5-ylmethyl]-pyridin-2-yl}-amine] | < 0.01 | 5 to 10
13 | CCc1ccc(Nc2ccc(Cc3c[nH]c4ncnc(C)c34)c(F)n2)cn1 [Compound P-4009, (6-Ethyl-pyridin-3-yl)-[6-fluoro-5-(4-methyl-7H-pyrrolo[2,3-d]pyrimidin-5-ylmethyl)-pyridin-2-yl]-amine] | < 0.01 | > 10
14 | CCn1cc(Nc2ccc(Cc3c[nH]c4ncnc(OC)c34)c(F)n2)cn1 [Compound P-4011, (1-Ethyl-1H-pyrazol-4-yl)-[6-fluoro-5-(4-methoxy-7H-pyrrolo[2,3-d]pyrimidin-5-ylmethyl)-pyridin-2-yl]-amine] | < 1 | 5 to 10
15 | CCOc1ncnc2[nH]cc(Cc3ccc(Nc4cnn(CC)c4)nc3F)c12 [Compound P-4012, [5-(4-Ethoxy-7H-pyrrolo[2,3-d]pyrimidin-5-ylmethyl)-6-fluoro-pyridin-2-yl]-(1-ethyl-1H-pyrazol-4-yl)-amine] | < 0.1 | > 10
16 | CCn1cc(Nc2ccc(Cc3c[nH]c4ncnc(OCCOC)c34)c(F)n2)cn1 [Compound P-4014, (1-Ethyl-1H-pyrazol-4-yl)-{6-fluoro-5-[4-(2-methoxy-ethoxy)-7H-pyrrolo[2,3-d]pyrimidin-5-ylmethyl]-pyridin-2-yl}-amine] | > 1 | 5 to 10
17 | CCOc1ncnc2[nH]cc(Cc3ccc(Nc4ccc(C)nc4)nc3F)c12 [Compound P-4017, [5-(4-Ethoxy-7H-pyrrolo[2,3-d]pyrimidin-5-ylmethyl)-6-fluoro-pyridin-2-yl]-(6-methyl-pyridin-3-yl)-amine] | < 0.1 | > 10
18 | CCOc1ncnc2[nH]cc(Cc3ccc(Nc4ccc(OC)nc4)nc3F)c12 [Compound P-4018, [5-(4-Ethoxy-7H-pyrrolo[2,3-d]pyrimidin-5-ylmethyl)-6-fluoro-pyridin-2-yl]-(6-methoxy-pyridin-3-yl)-amine] | < 0.1 | 5 to 10
19 | COCCOc1ncnc2[nH]cc(Cc3ccc(Nc4ccc(OC)nc4)nc3F)c12 [Compound P-4019, {6-Fluoro-5-[4-(2-methoxy-ethoxy)-7H-pyrrolo[2,3-d]pyrimidin-5-ylmethyl]-pyridin-2-yl}-(6-methoxy-pyridin-3-yl)-amine] | < 0.1 | 5 to 10
20 | COc1ccc(Nc2ccc(Cc3c[nH]c4ncnc(C5CC5)c34)c(F)n2)cn1 [Compound P-4023, [5-(4-cyclopropyl-7H-pyrrolo[2,3-d]pyrimidin-5-ylmethyl)-6-fluoro-pyridin-2-yl]-(6-methoxy-pyridin-3-yl)-amine] | < 0.1 | < 5

Other lines, results leading:

Row | IC50 (TrkA kinase) [µM] | IC50 (CYP3A4(BFC)) [µM] | Structure (SMILES)
21 | < 0.01 | > 10 | CCc1ccc(Nc2ccc(C(=O)c3c[nH]c4ncc(C)cc34)c(F)n2)cn1 [Compound P-3049, [6-(6-Ethyl-pyridin-3-ylamino)-2-fluoro-pyridin-3-yl]-(5-methyl-1H-pyrrolo[2,3-b]pyridin-3-yl)-methanone]
22 | < 0.01 | > 10 | O=C(c1ccc(Nc2ccc(C3CC3)nc2)nc1F)c1c[nH]c2ncccc12 [Compound P-3052, [6-(6-Cyclopropyl-pyridin-3-ylamino)-2-fluoro-pyridin-3-yl]-(1H-pyrrolo[2,3-b]pyridin-3-yl)-methanone]
23 | < 0.1 | > 10 | COc1ncnc2[nH]cc(Cc3ccc(Nc4ccc(C5CC5)nc4)nc3F)c12 [Compound P-4004, (6-Cyclopropyl-pyridin-3-yl)-[6-fluoro-5-(4-methoxy-7H-pyrrolo[2,3-d]pyrimidin-5-ylmethyl)-pyridin-2-yl]-amine]
24 | < 0.1 | > 10 | CCOc1ccc(Nc2ccc(Cc3c[nH]c4ncnc(OC)c34)c(F)n2)cn1 [Compound P-4005, (6-Ethoxy-pyridin-3-yl)-[6-fluoro-5-(4-methoxy-7H-pyrrolo[2,3-d]pyrimidin-5-ylmethyl)-pyridin-2-yl]-amine]
25 | < 1 | > 10 | COc1ncnc2[nH]cc(Cc3ccc(Nc4ccc(C)nc4)nc3F)c12 [Compound P-4010, [6-Fluoro-5-(4-methoxy-7H-pyrrolo[2,3-d]pyrimidin-5-ylmethyl)-pyridin-2-yl]-(6-methyl-pyridin-3-yl)-amine]
26 | < 1 | > 10 | CCn1cc(Nc2ccc(Cc3c[nH]c4ncnc(C)c34)c(F)n2)cn1 [Compound P-4013, (1-Ethyl-1H-pyrazol-4-yl)-[6-fluoro-5-(4-methyl-7H-pyrrolo[2,3-d]pyrimidin-5-ylmethyl)-pyridin-2-yl]-amine]
27 | > 1 | > 10 | COCCOc1ncnc2[nH]cc(Cc3ccc(Nc4ccc(C)nc4)nc3F)c12 [Compound P-4015, {6-Fluoro-5-[4-(2-methoxy-ethoxy)-7H-pyrrolo[2,3-d]pyrimidin-5-ylmethyl]-pyridin-2-yl}-(6-methyl-pyridin-3-yl)-amine]
28 | < 0.01 | > 10 | CCc1ccc(Nc2ccc(Cc3c[nH]c4ncnc(OCCOC)c34)c(F)n2)cn1 [Compound P-4016, (6-Ethyl-pyridin-3-yl)-{6-fluoro-5-[4-(2-methoxy-ethoxy)-7H-pyrrolo[2,3-d]pyrimidin-5-ylmethyl]-pyridin-2-yl}-amine]
29 | < 0.01 | 5 to 10 | COc1ccc(Nc2ccc(C(=O)c3c[nH]c4ncnc(C5CC5)c34)c(F)n2)cn1 [Compound P-4022, (4-cyclopropyl-7H-pyrrolo[2,3-d]pyrimidin-5-yl)-[2-fluoro-6-(6-methoxy-pyridin-3-ylamino)-pyridin-3-yl]-methanone]
30 | < 0.1 | < 5 | CCOc1ccc(Nc2ccc(C(=O)c3c[nH]c4ncnc(OC)c34)c(F)n2)cn1 [Compound P-4024, [6-(6-Ethoxy-pyridin-3-ylamino)-2-fluoro-pyridin-3-yl]-(4-methoxy-7H-pyrrolo[2,3-d]pyrimidin-5-yl)-methanone]
